Assay results reported in paper PMC9962224, “Novel Inhibitors of Acetyl- and Butyrylcholinesterase Derived from Benzohydrazides: Synthesis, Evaluation and Docking Study” (Pharmaceuticals, 2023).

What was measured:
[1] = target: T1, AChE (obtained from electric eel; EeAChE) (Electrophorus electricus, UniProt O42275); assay: biochemical; type: biochemical; details: for Selectivity BChE/AChE: SI = ratio of IC50 for BChE/IC50 for AChE, above 1 = stronger inhibition of AChE; for IC50: electric eel AChE, mean ± SD from three independent experiments
T1 construct: AChE (obtained from electric eel); purchased Merck (Prague, Czech Republic); host or cells: electric eel (natural source)
From the text: (§1) Hydrazinecarboxamides 1–3 were examined in vitro for their potential to inhibit the function of AChE (obtained from electric eel) and BChE from equine serum using Ellman’s spectrophotometric method (Table 2). The activities are expressed as IC50 values, i.e., concentrations leading to 50% inhibition of enzymatic activity. Based on the IC50 values for AChE and BChE, we calculated selectivity indexes (SI) that quantified the selectivity for each cholinesterase. SI is the ratio of IC50 for BChE/IC50 for AChE.
(§2) The enzyme activity in the final reaction mixture (2000 µL) was 0.2 U/mL, the concentration of ATCh (or BTCh) was 40 µM, and the concentration of DTNB was 100 µM for all reactions. The investigated derivatives were dissolved in DMSO and then diluted with demineralized water (conductivity 3 μS, equipment supplier BKG Water Treatment, Hradec Králové, Czech Republic) to a concentration of 1000 µM. Five different inhibitor concentrations were used for all tested compounds in the final reaction mixture. The final concentration of DMSO was 0.2%. All experiments were performed in triplicate. The average values of the reaction rate (v0-uninhibited reaction, vi-inhibited reaction) were used to construct the dependence of v0/vi on the concentration of inhibitors. IC50 values were calculated from obtained regression curve equations.
(§3) Acetylcholinesterase originating from electric eels (Electrophorus electricus L.; EeAChE) and butyrylcholinesterase obtained from equine serum (EqBChE) were used.

[2] = target: T2, BChE from equine serum (EqBChE) (Equus caballus, UniProt P81908); assay: biochemical; type: biochemical; details: for IC50: equine serum BChE, mean ± SD from three independent experiments
T2 construct: BChE from equine serum; purchased Merck (Prague, Czech Republic); host or cells: equine serum (natural source)
From the text: as §1, §2, §3

T1 sequence (O42275 24-633): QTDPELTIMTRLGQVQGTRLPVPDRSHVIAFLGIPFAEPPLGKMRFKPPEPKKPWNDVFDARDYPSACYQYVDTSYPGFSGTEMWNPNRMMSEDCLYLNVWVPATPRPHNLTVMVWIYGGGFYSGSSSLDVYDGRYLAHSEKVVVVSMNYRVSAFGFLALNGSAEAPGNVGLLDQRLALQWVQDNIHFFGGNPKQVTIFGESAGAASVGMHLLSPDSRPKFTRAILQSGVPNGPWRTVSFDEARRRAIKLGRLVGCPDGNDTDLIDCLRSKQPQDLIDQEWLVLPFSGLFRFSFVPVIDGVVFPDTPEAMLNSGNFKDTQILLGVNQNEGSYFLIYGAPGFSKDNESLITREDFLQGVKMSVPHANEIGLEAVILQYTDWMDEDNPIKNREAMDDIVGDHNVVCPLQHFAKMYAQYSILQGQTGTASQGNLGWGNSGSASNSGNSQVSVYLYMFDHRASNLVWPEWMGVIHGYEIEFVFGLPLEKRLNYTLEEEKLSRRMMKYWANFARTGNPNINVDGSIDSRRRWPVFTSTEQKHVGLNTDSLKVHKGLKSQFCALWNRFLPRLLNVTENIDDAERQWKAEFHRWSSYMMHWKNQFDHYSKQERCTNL
T2 sequence (P81908 whole entry): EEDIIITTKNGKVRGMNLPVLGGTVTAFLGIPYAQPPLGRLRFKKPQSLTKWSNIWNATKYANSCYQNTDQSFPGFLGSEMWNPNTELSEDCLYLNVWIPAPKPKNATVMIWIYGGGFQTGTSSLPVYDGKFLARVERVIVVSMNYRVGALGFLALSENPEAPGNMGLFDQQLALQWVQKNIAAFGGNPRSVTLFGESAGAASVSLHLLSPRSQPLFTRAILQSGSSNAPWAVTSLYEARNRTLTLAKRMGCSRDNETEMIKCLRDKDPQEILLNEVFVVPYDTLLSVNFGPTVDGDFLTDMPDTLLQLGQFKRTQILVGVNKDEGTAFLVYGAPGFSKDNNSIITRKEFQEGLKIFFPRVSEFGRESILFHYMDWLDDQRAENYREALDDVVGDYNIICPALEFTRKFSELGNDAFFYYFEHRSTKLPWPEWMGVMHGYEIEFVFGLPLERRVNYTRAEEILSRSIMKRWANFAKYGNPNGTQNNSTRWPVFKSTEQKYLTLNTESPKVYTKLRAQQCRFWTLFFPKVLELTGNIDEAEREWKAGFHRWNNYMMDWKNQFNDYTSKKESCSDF

Row | SMILES | Selectivity BChE/AChE [1] | IC50 [1] | IC50 [2] | Fold improvement of BChE inhibition, tridecyl vs. N-methyl analog ([2]; 1g vs. 1h)
1 | CNC(=O)NNC(=O)Cc1ccc(C(F)(F)F)cc1 [3a, N-Methyl-2-{2-[4-(trifluoromethyl)phenyl]acetyl}hydrazine-1-carboxamide] | 1.9 | 68.51 ± 0.25 µM | 131 ± 9.7 µM | 
2 | CNC(=O)NNC(=O)c1ccc(N(C)C)cc1 [1y, 2-[4-(Dimethylamino)benzoyl]-N-methylhydrazine-1-carboxamide] | 4.3 | 70 ± 1.74 µM | 300 ± 13.6 µM | 
3 | CCCCCCCCCCCCCNC(=O)NNC(=O)c1ccc(F)cc1 [1d, 2-(4-Fluorobenzoyl)-N-tridecylhydrazine-1-carboxamide] | 8.0 | 60.16 ± 0.53 µM | 483 ± 20.2 µM | 
4 | CNC(=O)NNC(=O)c1ccc(Cl)cc1 [1e, 2-(4-Chlorobenzoyl)-N-methylhydrazine-1-carboxamide] | 7.2 | 44.1 ± 1.79 µM | 319 ± 12.6 µM | 
5 | CCCCCCCCCCCCCNC(=O)NNC(=O)c1ccc(C)cc1 [1p, 2-(4-Methylbenzoyl)-N-tridecylhydrazine-1-carboxamide] | 2.8 | 100 ± 2.1 µM | 277 ± 6.5 µM | 
6 | CCCCCCCCCCCCCNC(=O)NNC(=O)c1ccc(Cl)cc1 [1f, 2-(4-Chlorobenzoyl)-N-tridecylhydrazine-1-carboxamide] | 1.0 | 86.59 ± 0.29 µM | 88.7 ± 3.28 µM | 
7 | CCCCCCCCCCCCCNC(=O)NNC(=O)c1ccc(S(N)(=O)=O)cc1 [1dd, 2-(4-Sulfamoylbenzoyl)-N-tridecylhydrazine-1-carboxamide] | 3.7 | 74.6 ± 1.12 µM | 275 ± 10.7 µM | 
8 | CCCCCCCCCCCCCNC(=O)NNC(=O)c1cccc(C(F)(F)F)c1 [2b, N-Tridecyl-2-[3-(trifluoromethyl)benzoyl]hydrazine-1-carboxamide] | 4.6 | 63.9 ± 0.83 µM | 292 ± 10.7 µM | 
9 | CCCCCCCCCCCCCNC(=O)NNC(=O)c1ccc(OC)cc1 [1v, 2-(4-Methoxybenzoyl)-N-tridecylhydrazine-1-carboxamide] | 4.5 | 83.6 ± 3.16 µM | 376 ± 17 µM | 
10 | CNC(=O)NNC(=O)c1ccccc1[N+](=O)[O-] [2g, N-Methyl-2-(2-nitrobenzoyl)hydrazine-1-carboxamide] | 3.0 | 64.3 ± 2.23 µM | 191 ± 10.1 µM | 
11 | CCCCCCCCCCCCCNC(=O)NNS(=O)(=O)c1ccc(C(F)(F)F)cc1 [3d, N-Tridecyl-2-{[4-(trifluoromethyl)phenyl]sulfonyl}hydrazine-1-carboxamide] | > 8.4 | 58.8 ± 0.96 µM | 339 ± 11.6 µM | 
12 | CNC(=O)NNC(=O)c1ccccc1C(F)(F)F [2c, N-Methyl-2-[2-(trifluoromethyl)benzoyl]hydrazine-1-carboxamide] | 4.8 | 61.09 ± 0.03 µM | 296.2 ± 0.87 µM | 
13 | CNC(=O)NNC(=O)c1cccc(Br)c1 [2i, 2-(3-Bromobenzoyl)-N-methylhydrazine-1-carboxamide] | 6.8 | 51.9 ± 2 µM | 354 ± 8.79 µM | 
14 | CNC(=O)NNC(=O)c1cccc(C(F)(F)F)c1 [2a, N-Methyl-2-[3-(trifluoromethyl)benzoyl]hydrazine-1-carboxamide] | 3.7 | 61.3 ± 1 µM | 225 ± 7.84 µM | 
15 | CNC(=O)NNC(=O)c1ccccc1Br [2k, 2-(2-Bromobenzoyl)-N-methylhydrazine-1-carboxamide] | >8.4 | 59.4 ± 1.83 µM | > 500 µM | 
16 | CCCCCCCCCCCCCNC(=O)NNC(=O)c1ccc(Oc2ccccc2)cc1 [1x, 2-(4-Phenoxybenzoyl)-N-tridecylhydrazine-1-carboxamide] | 6.3 | 58.3 ± 3.29 µM | 368 ± 14.3 µM | 
17 | CCCCCCCCCCCCCNC(=O)NNC(=O)c1ccc(O)cc1 [1bb, 2-(4-Hydroxybenzoyl)-N-tridecylhydrazine-1-carboxamide] | 2.0 | 74.7 ± 3.31 µM | 149 ± 10.7 µM | 
18 | CNC(=O)NNC(=O)c1ccc(-c2ccccc2)cc1 [1s, N-Methyl-2-(4-phenylbenzoyl)hydrazine-1-carboxamide] | 4.7 | 64.4 ± 1.67 µM | 301 ± 7.46 µM | 
19 | CCCCCCCCCCCCCNC(=O)NNC(=O)c1ccc(OC(F)(F)F)cc1 [1b, N-Tridecyl-2-[4-(trifluoromethoxy)benzoyl]hydrazine-1-carboxamide] | 1.9 | 65.1 ± 1.15 µM | 125.2 ± 1.17 µM | 

Row | SMILES | Selectivity BChE/AChE [1] | IC50 [1] | IC50 [2] | Fold improvement of BChE inhibition, tridecyl vs. N-methyl analog ([2]; 1g vs. 1h)
20 | CNC(=O)NNC(=O)c1cccc([N+](=O)[O-])c1 [2e, N-Methyl-2-(3-nitrobenzoyl)hydrazine-1-carboxamide] | >7.4 | 67.4 ± 1.72 µM | > 500 µM | 
21 | CNC(=O)NNC(=O)c1ccc(OC(F)(F)F)cc1 [1a, N-Methyl-2-[4-(trifluoromethoxy)benzoyl]hydrazine-1-carboxamide] | 3.6 | 56.76 ± 0.49 µM | 204 ± 13.5 µM | 
22 | CCCCCCCCCCCCCNC(=O)NNC(=O)c1ccc(C(C)(C)C)cc1 [1r] | 0.8 | 75.25 ± 0.43 µM | 57.24 ± 0.23 µM | 
23 | CNC(=O)NNC(=O)c1ccccc1 [1ee, 2-Benzoyl-N-methylhydrazine-1-carboxamide] | 3.6 | 63.3 ± 1.49 µM | 229.21 ± 0.08 µM | 
24 | CCCCCCCCCCCCCNC(=O)NNC(=O)c1ccc(N(C)C)cc1 [1z, 2-[4-(Dimethylamino)benzoyl]-N-tridecylhydrazine-1-carboxamide] | 2.1 | 87.67 ± 0.83 µM | 188 ± 2.22 µM | 
25 | CNC(=O)NNC(=O)c1ccc(Oc2ccccc2)cc1 [1w, N-Methyl-2-(4-phenoxybenzoyl)hydrazine-1-carboxamide] | 4.0 | 75 ± 0.84 µM | 302.3 ± 2.11 µM | 
26 | CNC(=O)NNS(=O)(=O)c1ccc(C(F)(F)F)cc1 [3c, N-Methyl-2-{[4-(trifluoromethyl)phenyl]sulfonyl}hydrazine-1-carboxamide] |  | 71.1 ± 0.94 µM | 425 ± 13.2 µM | 
27 | CNC(=O)NNC(=O)c1ccc(Br)cc1 [1g, 2-(4-Bromobenzoyl)-N-methylhydrazine-1-carboxamide] | 7.1 | 50.6 ± 1.55 µM | 359.6 ± 2.17 µM | 
28 | CCCCCCCCCCCCCNC(=O)NNC(=O)c1ccc(Br)cc1 [1h, 2-(4-Bromobenzoyl)-N-tridecylhydrazine-1-carboxamide] | 0.4 | 72.66 ± 0.67 µM | 27.08 ± 0.07 µM | 13.3 ×
29 | CNC(=O)NNC(=O)c1ccc(S(N)(=O)=O)cc1 [1cc, N-Methyl-2-(4-sulfamoylbenzoyl)hydrazine-1-carboxamide] | 2.9 | 86.14 ± 0.5 µM | 250 ± 5.22 µM | 
30 | CNC(=O)NNC(=O)c1ccc(I)cc1 [1i, 2-(4-Iodobenzoyl)-N-methylhydrazine-1-carboxamide] | >6.8 | 73.8 ± 1.78 µM | > 500 µM | 
31 | CCCCCCCCCCCCCNC(=O)NNC(=O)c1ccccc1Br [2l, 2-(2-Bromobenzoyl)-N-tridecylhydrazine-1-carboxamide] | >9.3 | 53.99 ± 0.44 µM | > 500 µM | 
32 | CCCCCCCCCCCCCNC(=O)NNC(=O)c1ccc(-c2ccccc2)cc1 [1t, 2-(4-Phenylbenzoyl)-N-tridecylhydrazine-1-carboxamide] | 0.6 | 51.1 ± 0.98 µM | 32.1 ± 0.18 µM | 
33 | CCCCCCCCCCCCCNC(=O)NNC(=O)c1ccccc1[N+](=O)[O-] [2h, 2-(2-Nitrobenzoyl)-N-tridecylhydrazine-1-carboxamide] | >9.1 | 54.9 ± 1.08 µM | > 500 µM | 
34 | CNC(=O)NNC(=O)c1ccc(C#N)cc1 [1m, 2-(4-Cyanobenzoyl)-N-methylhydrazine-1-carboxamide] | 8.1 | 55.64 ± 0.27 µM | 448 ± 39 µM | 
35 | CNC(=O)NNC(=O)c1ccc(F)cc1 [1c, 2-(4-Fluorobenzoyl)-N-methylhydrazine-1-carboxamide] | 6.4 | 57.2 ± 1.66 µM | 366 ± 78.4 µM | 
36 | CCCCCCCCCCCCCNC(=O)NNC(=O)c1ccccc1C(F)(F)F [2d, N-Tridecyl-2-[2-(trifluoromethyl)benzoyl]hydrazine-1-carboxamide] | 5.2 | 80.4 ± 2.1 µM | 422 ± 12.4 µM | 
37 | CCCCCCCCCCCCCNC(=O)NNC(=O)c1ccc(C#N)cc1 [1n, 2-(4-Cyanobenzoyl)-N-tridecylhydrazine-1-carboxamide] | 7.6 | 54.6 ± 1.27 µM | 418 ± 15.7 µM | 
38 | CCCCCCCCCCCCCNC(=O)NNC(=O)Cc1ccc(C(F)(F)F)cc1 [3b, N-Tridecyl-2-{2-[4-(trifluoromethyl)phenyl]acetyl}hydrazine-1-carboxamide] | 3.6 | 81.69 ± 0.45 µM | 292.9 ± 1.72 µM | 
